Reference: PubChem BioAssay AID179 (DTP/NCI, 2004)
Values joined by “and” are separate entries in the source; they are usually repeats but may differ in a detail not shown here. Identical values can stand only once. Active and inactive are the calls of the source.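 The calls were made as follows: active = compounds giving half or more protection of infected cells from virus-caused growth loss, again on retest; inactive = the rest.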

Tested on: CEM cells HIV-1 protection, formazan growth assay
Test: NCI AIDS Antiviral Assay
Settings: for IC50: measured here: growth of uninfected CEM cells
Procedure, shortened: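 Five concentrations of each compound were applied to infected and uninfected human CEM cells. Protection from HIV-1 was judged from growth measured with a soluble formazan assay.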

SMILES | EC50 | IC50 | outcome
O=C1CCC(NC(=O)c2ccccc2)C(=O)N1 (stereo not given) | > 200 µM | > 200 µM | –
O=C1CC2(CCC(O)(c3cccc4ccccc34)C(C(=O)c3cccc4ccccc34)C2)C(=O)c2ccccc2N1 (stereo not given) | > 200 µM | 110 µM | –
CC(NS(C)(=O)=O)c1ccccc1 (stereo not given) | > 200 µM | > 200 µM | –
CCOC(=O)/C(Br)=C1\OC(=O)c2ccccc2-c2ccccc21 | > 19.5 µM | > 19.5 µM | –
COc1cc(C2c3c(ccc4ccccc34)C(=O)C3CCC(=O)N32)cc(OC)c1O (stereo not given) | > 25.1 µM | 1.29 µM | –
Clc1ccc2nc3occ(Br)c3cc2c1 | > 13.2 µM | > 13.2 µM | –
Cc1nc2c(nc1C)C(=O)C(N1CCCCC1)=CC2=O | – | – | inactive
N#Cc1nc(CCc2nc(C#N)c(N)o2)oc1N | > 200 µM | > 200 µM | –
COC(Cc1cc(C(O)(c2ccc(C(C)(C)C)cc2)c2cc(CC(OC)(c3cc(C(OC)(c4ccc(C(C)(C)C)cc4)c4ccc(C(C)(C)C)cc4)c(C)cc3C)c3cc(C(OC)(c4ccc(C(C)(C)C)cc4)c4ccc(C(C)(C)C)cc4)c(C)cc3C)c(C)cc2C)c(C)cc1C)(c1cc(C(OC)(c2ccc(C(C)(C)C)cc2)c2ccc(C(C)(C)C)cc2)c(C)cc1C)c1cc(C(OC)(c2ccc(C(C)(C)C)cc2)c2ccc(C(C)(C)C)cc2)c(C)cc1C | – | – | inactive
CC1(C)OC(=S)N(c2ccccc2)C12C=Cc1cc3ccccc3nc1S2 (stereo not given) | > 3.72 µM | 3.31 µM | –
O=[N+]([O-])c1ccc(S(=O)(=O)NCCSSCCNS(=O)(=O)c2ccc([N+](=O)[O-])cc2)cc1 | > 200 µM | 10.5 µM | –
C/C1=C\CC[C@@]2(C)O[C@@H]2[C@H]2OC(=O)C(C)C2C[C@H]1O (stereo not given in full) | > 200 µM | > 200 µM | –
O=C(/C=C/c1ccc(Cl)cc1)c1cccs1 | > 200 µM | 1.23 µM | –
C=C(C)CCC1CC=[N+]([O-])OC1C(C)(C)C (stereo not given) | > 200 µM | 28.8 µM | –
COc1ccc(-c2c(-c3ccc(OC)cc3)n3c(=O)n(C)c(=O)n23)cc1 | > 200 µM | 79.4 µM | –
O=C(O)c1cccc(S(=O)(=O)NN2C(=O)CSC2c2ccccc2)c1 (stereo not given) | > 200 µM | > 200 µM | –
Cc1cc(Cl)cc2c1S/C(=C1\Sc3c(C)cc(Cl)cc3C1=O)C2=O | > 200 µM | > 200 µM | –
Cc1nn(C(=O)Cc2ccccc2)c2c1C(c1ccc(Cl)cc1)SC(N)=N2 (stereo not given) | 110 µM | 158 µM | –
c1cc(-c2ncc3ccncc3n2)ccn1 | > 64.6 µM | > 64.6 µM | –
S=C1OC2CCCC[C@H]2O1 (stereo not given in full) | > 120 µM | > 120 µM | –
O=C(NCCCCCCO)c1cccc2cc3ccccc3nc12 | > 200 µM | 18.6 µM | –
O=C1[C@H](Cc2ccccc2)C[C@H]2CO[C@H](c3ccccc3)N12 | > 200 µM | 38.9 µM | –

SMILES | EC50 | IC50 | outcome
O=S(=O)(Nc1ccc(NS(=O)(=O)c2ccccc2)c(N2N=N2)c1)c1ccccc1 | > 200 µM | 51.3 µM | –
CCNc1nnc(CSc2nc(-c3ccccc3)c(-c3ccccc3)[nH]2)s1 | > 25.1 µM | 12.9 µM | –
C/C(C=C(C#N)C#N)=C\c1cccc(F)c1 | > 123 µM | 14.1 µM | –
Cc1cc(Cl)cc(S)c1S(=O)(=O)Nc1nnc2c3ccccc3cnn12 | 77.6 µM | > 200 µM | –
c1ccc(CCC[P+](c2ccccc2)(c2ccccc2)c2ccccc2)cc1 | > 200 µM | 0.692 µM | –
O=C1CCCCC(=O)Nc2ccccc2-c2ccccc2N1 | – | – | inactive
COC1=NCc2ccccc2-c2ccccc21 | > 224 µM | 123 µM | –
Cc1cccc(NC(=O)/C=C/c2ccc(N(CCC#N)CCC#N)cc2C)c1 | > 676 µM | > 676 µM | –
C[N+]1=C(c2cccnc2/C=N/O)OCC1(C)C | > 692 µM | 417 µM | –
CSc1ccc(/C=C2\CNC/C(=C\c3ccc(SC)cc3)C2=O)cc1 | > 200 µM | 58.9 µM | –
CC(=O)CC1(OC(=O)C2C(C=C(C)C)C2(C)C)C(=O)Nc2ccccc21 (stereo not given) | > 200 µM | 105 µM | –
NC(=O)Cn1c(=O)[nH]c(=O)c2[nH]cnc21 | > 174 µM | > 174 µM | –
CN(C)c1ccc2c(c1)-c1cc(N(C)C)ccc1C2=CC=C(C#N)C#N | > 4.27 µM | > 4.27 µM | –
CN1C/C(=C\c2ccccc2[N+](=O)[O-])C(=O)/C(=C/c2ccccc2[N+](=O)[O-])C1 | > 2 µM | 0.166 µM and 0.0871 µM | –
Cc1c2ccccc2nc(CS(=O)c2ccccc2)[n+]1[O-] (stereo not given) | > 200 µM | 186 µM | –
Oc1cc2cccc[n+]2c2cc(Cl)ccc12 | > 200 µM | 91.2 µM | –
COc1cc(O)c(/C=N\O)c(OC)c1 | > 912 µM | 83.2 µM | –
Cc1ccc(C(=O)Nc2ccc(S(=O)(=O)O)c3cc(S(=O)(=O)O)cc(S(=O)(=O)O)c23)cc1NC(=O)c1cccc(N)c1 | > 200 µM | > 200 µM | –
CN(C)CCNc1ccc(CO)c2sc3ccc(O)cc3c(=O)c12 | > 2 µM | 0.105 µM | –
CCn1c(=S)[nH]c2sc3c(c2c1=O)CCCCC3 | > 107 µM | 21.9 µM | –
CC1=C(C(=O)NNC(=O)C[n+]2ccccc2)CC(C(=O)NNC(=O)C[n+]2ccccc2)=C(C)N1 | > 200 µM | > 200 µM | –
Cc1ccc(NC(=O)CCC/C(CC(=O)c2ccc(Br)cc2)=N/NC(=O)CC#N)cc1 | > 102 µM | > 102 µM | –

SMILES | EC50 | IC50 | outcome
CSc1ncc2c(n1)sc1c(=O)n(-c3ccccc3)cnc12 | > 200 µM | > 200 µM | –
O/N=C1/COC(C(F)(F)F)(C(F)(F)F)C1 | > 200 µM | > 200 µM | –
CCOP(=O)(OCC)/C(C#N)=C/c1cnc[nH]1 | > 200 µM | > 200 µM | –
C1OC1[C@@H]1CC[C@@H]([C@@H]2CC[C@@H]([C@H]3CO3)O2)O1 (stereo not given in full) | – | 39.8 µM | inactive
COC(=O)c1nc(N)nc(C(=O)OC)c1C(=O)/C=C/c1ccccc1 | > 741 µM | 324 µM | –
COCCOC(C)C(=O)C(O)S(=O)(=O)O (stereo not given) | > 200 µM | 186 µM | –
Cc1ccc2c(ccc(/C=C\c3cc(C)c4cccnc4c3O)[n+]2C)c1 | > 39.8 µM | 0.776 µM | –
Cc1ccccc1C(C#N)C(=O)C(=O)Nc1cccc(Cl)c1 (stereo not given) | > 417 µM | > 417 µM | –
COc1ccc2cc1Oc1ccc(cc1)C[C@@H]1c3cc(c(OC)cc3CCN1C)Oc1c(OC)c(OC)cc3c1[C@@H](C2)N(C)CC3 | – | – | inactive
Nc1ccc(-c2nc3ccc(Cc4ccc5nc(-c6ccc(N)cc6)oc5c4)cc3o2)cc1 | 107 µM | > 200 µM | –
CC(C)(C)OC(=O)C1/C(=C/CO)CN1C(=O)OC(C)(C)C (stereo not given) | > 200 µM | 43.7 µM | –
CCCc1cc(-c2ccc(N=Nc3cc(S(=O)(=O)O)c4ccccc4c3N)c(CCC)c2)ccc1N=Nc1cc(S(=O)(=O)O)c2ccccc2c1N | 105 µM | 182 µM | –
CC1(O)C(=O)OC2CC([C@]3(O)CCC4[C@@H]5C[C@H]6O[C@]67[C@@H](O)C=CC(=O)[C@]7(C)C5CC[C@@]43C)C1(C)C2 (stereo not given in full) | > 200 µM | 11.7 µM | –
BrCC[P+](c1ccccc1)(c1ccccc1)c1ccccc1 | > 200 µM | 3.98 µM | –
O=C1CCC2SC1CCC2=O | > 200 µM | > 200 µM | –
CC1=CC(C)(C)N=C2SC(c3ccc(Cl)cc3)=NN12 | > 24.5 µM | 20 µM | –
CSc1nc(-c2ccc(C)cc2)c(C#N)c(=O)[nH]1 | – | – | inactive
COc1ccccc1NC(=S)/N=C/c1c(O)[nH]c(=O)[nH]c1=O | > 200 µM | > 200 µM | –
CC(C)(CCNc1c2ccccc2nc2cccc([N+](=O)[O-])c12)[N+](C)(C)[O-] | > 0.2 µM | 0.12 µM | –
Fc1cccc(C2SCc3nc4cc5ccccc5cc4n32)c1 (stereo not given) | > 200 µM | > 200 µM | –
C=C(C)C1C/C=C(/C)CCCC2(CCC3=C(CC(C(=C)C)C/C=C(/C)CCC3)O2)C(=O)C1 (stereo not given) | > 30.9 µM | > 30.9 µM | –
Nc1ncnc2c1ncn2C(Cl)=C(Cl)Cl | > 200 µM | 115 µM | –

SMILES | EC50 | IC50 | outcome
C=CC1(CC/C(=C\[N+](=O)[O-])c2ccc(OC)c(OC)c2)OCC(C)(C)CO1 | > 200 µM | 17.4 µM | –
Cc1ccc(OP2(=O)Nc3ccccc3S2)cc1 (stereo not given) | > 468 µM | 25.7 µM | –
O=C(NC1CCCCC1)c1n[nH]nc1Cl | > 200 µM | > 200 µM | –
CCCCN=C(NCCCC)OC1CCCCC1 | > 200 µM | 64.6 µM | –
CCOC(=O)C1=C(O)CSC1=Nc1ccccc1 | – | – | inactive
Cn1c(N)c(/C=N/NC(=O)CC#N)c(=O)n(C)c1=O | > 200 µM | > 200 µM | –
C=C1CC2CC(O)CC(C1)C2 (stereo not given) | – | – | inactive
S=C1OC2C3C4CC5C3C(O1)C1C5C4C21 (stereo not given) | – | – | inactive
CC(C)(C)OC(=O)NCCCCC(NC(=O)c1ccccc1)C(N)=O (stereo not given) | > 200 µM | > 200 µM | –
CC(=O)OCC1OC(n2cnc([N+](=O)[O-])c2Br)C(OC(C)=O)C1OC(C)=O (stereo not given) | > 200 µM | 11.7 µM | –
CC(C)(C)OC(=O)[C@@H]1ON2O[C@H](OC3CCCC3(c3ccccc3)c3ccccc3)C[C@H]3OC(=O)[C@@H]1[C@H]32 (stereo not given in full) | > 200 µM | 31.6 µM | –
NC(N)=Nc1ccc2oc(=O)ccc2c1 | > 120 µM | > 120 µM | –
O=C1/C(=C/c2cccc(Br)c2)CCc2ccccc21 | > 200 µM | 7.24 µM | –
COc1ccc2c(c1)O[C@H]1c3ccc(O)cc3OC[C@@H]21 | – | – | inactive
Cc1cc2c(cc1-c1cc3c(cc1C)C(C(C)C)=C(O)C(=O)/C3=C\Nc1nc(-c3ccccc3)cs1)/C(=C/Nc1nc(-c3ccccc3)cs1)C(=O)C(O)=C2C(C)C | > 100 µM | 13.2 µM | –
N[C@H](C(=O)O)[C@H](Cl)CC(=O)O | > 245 µM | > 245 µM | –
COC(=O)CCc1ccc2c(c1)C(=O)CC2 | > 200 µM | > 200 µM | –
COc1ccc2c(c1)C(N)=C(c1ccccc1OC)C2=O | > 200 µM | 120 µM | –
CCC(=C(C#N)C#N)c1cc(OC)c(OC)c(OC)c1 | > 26.3 µM | > 26.3 µM | –
Cc1nn(C(=O)c2ccc(Cl)cc2)c2c1C(c1ccc(Cl)cc1)SC(N)=N2 (stereo not given) | > 200 µM | 36.3 µM | –
Clc1ccc([S+](c2ccc(Cl)cc2)C(Cl)(Cl)C(Cl)(Cl)Cl)cc1 | > 52.5 µM | 7.24 µM | –
